The conditions of data set [1]: Chung et al., 2017; cited from earlier work.
The subject of data set [2] is NPR2. The data set is described as follows: cGMP production in tibia growth plates using cGi500 FRET sensor. It counts as cell-based, mouse. Particulars: for CNP-induced cGMP increase after FGF treatment: then FGF 80 min, newborn mouse tibia; for cGMP (CFP/YFP emission ratio from cGi500) on perfusion across the growth plate: newborn mouse tibia growth plate. As for the experimental part:
cGMP production in chondrocytes within intact growth plates was measured using tibias dissected from newborn mice (0-1 day old) that globally expressed one or two copies of the cGi500 FRET sensor, as previously described (Shuhaibar et al., 2017).Tibias were dissected and cultured overnight on Millicell membranes in BGJb medium with 0.1% bovine serum albumin, 100 units/ml of penicillin, and 100 μg/ml of streptomycin. In preparation for imaging, each tibia was slit to remove the tissue overlying the growth plate. Where indicated, the tibia was incubated in LB-100, cantharidin, or control medium, followed by addition of FGF18 (0.5 μg/ml+1 μg/ml heparin) or control medium containing heparin only. The tibia was then placed in a perfusion slide and the growth plate was imaged on the stage of a confocal microscope, as previously described (Shuhaibar et al., 2017).
NPR2 activity in chondrocytes of intact growth plates was measured as previously described, using mice expressing a FRET sensor for cGMP, cGi500 (Shuhaibar et al., 2017). Tibias were isolated from newborn mice, and the overlying tissue was excised to expose the growth plate for confocal imaging (Data not shown). When the NPR2 agonist C-type natriuretic peptide (CNP) was perfused across the growth plate, the CFP/YFP emission ratio from cGi500 increased, indicating an increase in cGMP, due to stimulation of the guanylyl cyclase activity of NPR2 (Data not shown).
To investigate if LB-100 counteracts the inactivation of NPR2 by FGF, we used the following protocol:Tibias expressing cGi500 were preincubated with solutions of 1, 5 or 10 μM LB-100 for 60 minutes. FGF was then added and the incubation was continued for an additional 80 minutes. Following these incubations, the tibia was placed in a perfusion slide for confocal imaging, and cGMP production by NPR2 was monitored by measuring the increase in CFP/YFP emission ratio in response to CNP.

For another data set, the system named is PPP1. Particulars: same conditions, DiFMUP; Richard Honkanen, personal communication; cited from earlier work.
The test system of data set [3] is NPR2. The data set is described as follows: Phos-tag gel electrophoresis / western blot of NPR2 in rib chondrocyte cultures. The format is cell-based, mouse. As for the experimental part:
Rib cages were dissected from newborn (0-2 day old) mice, and trimmed to remove the skin, spinal cord, and soft tissue around the sternum and ribs. Non-chondrocyte tissue was digested away by incubating the rib cages in 2 mg/ml pronase in PBS for one hour in a shaking water bath at 37° C., and then incubated in 3 mg/ml collagenase D in medium for one hour. After washing, the rib cages were transferred to a dish with fresh collagenase D and incubated for 5-6 hours, with trituration at 2 hours, to release the chondrocytes. The isolated cells were passed through a 40 um nylon cell strainer, resuspended in DMEM/F12 medium with 10% fetal bovine serum, 100 units/ml of penicillin, and 100 μg/m1 of streptomycin, and plated in 35 mm tissue culture dishes, at a cell density corresponding to one newborn mouse per plate. The cells were cultured for 3 days, at which point they were ˜75-90% confluent, then washed with PBS and incubated in serum-free medium for 18 hours. The cells were then incubated in LB-100 (10 μM), or control medium, followed by addition of FGF18 (0.5 ug/ml+1 μg/ml heparin) or control medium containing heparin only.
At end of the incubation period, dishes were washed in PBS and cells lysed in 250 μl of 1% SDS containing 10 mM sodium fluoride, 1 μM microcystin, and Roche protease inhibitor cocktail. Protein content was determined by a BCA assay. […]
Background: In western blotting, separated proteins are transferred to a membrane and probed.

In another data set the test system is Fgfr3^Y367C/+ femurs. The data set is described as follows: Ex vivo culture of fetal femurs from Fgfr3^Y367C/+ mice (growth in length and area). To be noted: E16.5 Fgfr3^Y367C/+ femurs, 6 day culture; BMN-111 0.1 μM, LB-100 10 μM. It counts as cell-based, mouse. As for the experimental part:
(§1) FIG. 1. LB-100 and BMN-111 act synergistically to stimulate growth in fetal femurs from Fgfr3^Y367C/+ mice.(A) Diagram showing sites of action of LB-100 and BMN-111. (B) Representative photographs of fetal femurs from E16.5 day old Fgfr3+/+ (wildtype) and Fgfr3^Y367+ mice, before (D0) and after a 6 day (D6) culture with the indicated treatments. […] For all experiments, the concentration of BMN-111 was 0.1 μM, and the concentration of LB-100 was 10 μM. Symbols in graphs C-E indicate individual bones (n=4−10). Bars represent mean ±SEM and data were analyzed by unpaired two-tailed t-tests. Asterisks indicate significant differences (p<0.05) between indicated groups; n.s. indicates no significant difference (p>0.05).
(§2) Femurs were cultured ex vivo, as described previously (Jonquoy et al., 2012; Lorget et al., 2012). The left femur was cultured in the presence of LB-100 (10 μM), BMN-111 (0.1 μM), or LB-100 (10 μM)+BMN-111 (0.1 μM), and compared with the non-treated right femur. The bone's length was measured on day 0 (D0) and day 6 (D6). Images were captured with an Olympus SZX12 stereo microscope and quantified using cellSens software (Olympus). The results were expressed as the increase in femur length or area (D6-D0) in the presence or absence of LB-100, BMN-111, or LB-100+BMN-111.

The target in the next data set is PPP2 (Homo sapiens, UniProt P67775). Particulars: in vitro, DiFMUP as substrate (D'Arcy et al., 2019); cited from earlier work.
Sequence of PPP2 (P67775 whole entry): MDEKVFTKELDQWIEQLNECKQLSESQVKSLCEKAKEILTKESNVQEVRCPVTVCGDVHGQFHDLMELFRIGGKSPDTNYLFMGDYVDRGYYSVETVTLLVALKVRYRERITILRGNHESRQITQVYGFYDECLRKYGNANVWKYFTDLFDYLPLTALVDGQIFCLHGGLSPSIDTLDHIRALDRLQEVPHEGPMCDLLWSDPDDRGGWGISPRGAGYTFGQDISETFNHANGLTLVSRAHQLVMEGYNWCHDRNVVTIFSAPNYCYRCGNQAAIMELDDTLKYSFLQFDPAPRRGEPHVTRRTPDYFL
In a further data set the target is T1, PPPS (Homo sapiens, UniProt P53041).
T1 sequence (P53041 1-499): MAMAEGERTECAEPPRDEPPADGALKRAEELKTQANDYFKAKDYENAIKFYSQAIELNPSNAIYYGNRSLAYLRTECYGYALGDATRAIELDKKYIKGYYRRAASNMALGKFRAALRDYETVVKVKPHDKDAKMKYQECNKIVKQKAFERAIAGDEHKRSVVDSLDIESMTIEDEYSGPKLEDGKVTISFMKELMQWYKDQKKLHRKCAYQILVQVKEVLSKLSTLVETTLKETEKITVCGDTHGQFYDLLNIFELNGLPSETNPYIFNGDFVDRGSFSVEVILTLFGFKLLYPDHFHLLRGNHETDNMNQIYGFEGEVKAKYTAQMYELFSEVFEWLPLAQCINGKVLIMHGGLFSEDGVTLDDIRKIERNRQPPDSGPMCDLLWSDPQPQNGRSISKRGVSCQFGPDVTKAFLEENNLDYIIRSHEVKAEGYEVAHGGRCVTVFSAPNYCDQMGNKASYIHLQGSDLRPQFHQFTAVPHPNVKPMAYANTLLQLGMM
Particulars: in vitro, DiFMUP as substrate (D'Arcy et al., 2019); cited from earlier work.

Data set [4] relates to NPR2. To be noted: cantharidin 100 μM (Shuhaibar et al., 2017); cited from earlier work.
Another data set deals with Fgfr3+/+ femurs. The data set is described as follows: Ex vivo culture of fetal femurs from Fgfr3+/+ mice (growth in length and area). The format is cell-based, mouse. Particulars: BMN-111 0.1 μM, LB-100 10 μM, 6 day culture. As for the experimental part: as §1, §2
Data set [5] has as its system growth plates of Fgfr3^Y367C/+ femurs. The data set is described as follows: Histology and immunohistochemistry of growth plates of ex vivo cultured Fgfr3^Y367C/+ femurs. It counts as cell-based, mouse. As for the experimental part:
FIG. 2. Dual action of LB-100 and BMN-111 improves chondrocyte differentiation in growth plates of ex-vivo cultured Fgfr3^Y367C/+ femurs. Mean area of individual hypertrophic chondrocytes in proximal growth plates of femurs treated (n=4−6 bones measured for each condition, with 54-137 cells measured for each bone). Data were analyzed by one-way ANOVA followed by the Holm-Sidak multiple comparison test (*p<0.05, **p<0.01, ****p<0.0001).
Fetal femur (E16.5) explants were fixed in 4% paraformaldehyde, decalcified with EDTA (0.4 M), and embedded in paraffin. Serial 5 μm sections were stained with hematoxylin-eosin-safran (HES) reagent, using standard protocols. For immunohistochemical assessment, sections were labeled with the following antibodies and a Dako Envision Kit: anti-COL X (BIOCYC, N.2031501005; 1:50 dilution), anti-phosphorylated ERK1-2 ([…]) (Cell Signaling Technology, #4370; 1:100 dilution), and anti-S0X9 (polyclonal antibody, Santa Cruz Biotechnology Inc., catalog D0609; dilution 1:75). Images were captured with an Olympus PD70-IX2-UCB microscope and quantified using cellSens software.
We measured the total area occupied by chondrocytes within the whole growth plate and the area occupied by COLX-positive chondrocytes. The area for proliferating chondrocytes was calculated by subtracting the COLX-positive area from the whole growth plate area.

In data set [6] the test system is children 5 to 14 years of age with achondroplasia. To be noted: for up to 42 months; Savarirayan et al., 2019; cited from earlier work.

The term IC50 denotes the midpoint of a concentration-inhibition curve. With `CN1CCN(C(=O)C2C3CCC(O3)C2C(=O)O)CC1` (stereo not drawn) [LB-100, 3-(4-methylpiperazine-1-carbonyl)-7-oxabicyclo[2.2.1]heptane-2-carboxylic acid], in [1], the “Toxicity in phase I clinical trial” value is on record as “little toxicity”. In addition, the “CNP-induced cGMP increase after FGF treatment” value with NPR2 [2] (1 μM LB-100 preincubation 60 min) is on record as “had no effect”; in the data set with NPR2 [2] (5 μM LB-100 preincubation 60 min) it was “enhanced”; in the data set with NPR2 [2] (10 μM LB-100 preincubation 60 min), “enhanced”. The “Effectiveness in counteracting NPR2 inactivation by FGF compared with cantharidin” value in the data set on NPR2 [2] (5 μM LB-100 equivalent to 10 μM cantharidin) is “more effective than cantharidin”. In the data set with NPR2 [2] (10 μM LB-100, confocal microscopy), the “Chondrocyte morphology in live growth plate (toxicity)” value is listed as “no visible change in chondrocyte morphology”. The figures for the 50% inhibitory concentration (IC50) in the data set on PPP1, on PPP2 and on PPPS were 1800 ± 22 nM, 390 ± 13 nM and 1820 ± 93 nM, respectively. Also, the “Cell morphology of rib chondrocytes” value in the data set with NPR2 [3] (1 hour incubation with 10 μM LB-100) is given as “did not cause any visible change in cell morphology”. Also, in the data set on NPR2 [3] (preincubation with 10 μM LB-100, primary rib chondrocytes), the “NPR2 dephosphorylation in response to FGF” value is “only partial”. For the same molecule, the “Mean rate of increase in bone length relative to vehicle/untreated bones (growth rate ratio)” value with Fgfr3^Y367C/+ femurs was 1.04. Also, in the data set with Fgfr3^Y367C/+ femurs, the “Rate of increase of total bone and cartilage area relative to control (growth rate ratio)” value is 1.40.

`C[C@@]12C(=O)OC(=O)[C@]1(C)[C@H]1CC[C@@H]2O1` [cantharidin]: in the data set with NPR2 [4], the “Inactivation of NPR2 in growth plate chondrocytes by FGF” value is “inhibits the inactivation of NPR2 in growth plate chondrocytes by FGF”.

With “ANP: A-type natriuretic peptide, which activates the NPR1 guanylyl cyclase”, in the data set on NPR2 [2], the “cGMP (CFP/YFP emission ratio from cGi500) on perfusion across the growth plate” value was “did not increase cGMP”.

For the molecule “[Cyc(23,39)]H2NPGQEHPNARKYKGANKKGLSKGCFGLKLDRIGSMSGLGC—OH [BMN-111]”, the “Rate of bone growth (length and area)” value in the data set with Fgfr3+/+ femurs is recorded as “increased the rate of bone growth”. In addition, in the data set with NPR2 [2] (BMN-111 0.1 μM), the “NPR2 activity in growth plate chondrocytes” value is on record as “stimulated NPR2 activity”. Besides, the “Size of Fgfr3^Y367C/+ hypertrophic chondrocytes” value in data set [5] (COLX immunostaining, ex vivo cultured femurs) is listed as “increased the size”. Besides, the “Increase of total proliferative growth plate area of the femur over vehicle” value in data set [5] (Fgfr3^Y367C/+ femurs, average) came to 20%. In the data set with Fgfr3^Y367C/+ femurs, the “Mean rate of increase in bone length relative to vehicle/untreated bones (growth rate ratio)” value amounted to 1.77; the “Rate of increase of total bone and cartilage area relative to control (growth rate ratio)” value worked out at 1.51. In addition, the “Annualized growth velocity in phase 2” value in [6] is recorded as “sustained increase in annualized growth velocity”.

For `CCN(CC)/[N+]([O-])=N/O` [DEA/NO], the “cGMP (CFP/YFP emission ratio from cGi500) on perfusion across the growth plate” value in the data set with NPR2 [2] is listed as “did not increase cGMP”.

B1: FGF18: fibroblast growth factor used with heparin to activate FGF receptor (protein, UniProt O76093 28-207, looked up)
Fibroblast growth factor 18: EENVDFRIHVENQTRARDDVSRKQLRLYQLYSRTSGKHIQVLGRRISARGEDGDKYAQLLVETDTFGSQVRIKGKETEFYLCMNRKGKLVGKPDGTSKECVFIEKVLENNYTALMSAKYSGWYVGFTKKGRPRKGPKTRENQQDVHFMKRYPKGQPELQKPFKYTTVTKRSRRIRPTHPA
On to B1, for which the “cGMP increase in response to CNP perfusion after exposure to FGF18” value in the data set with NPR2 [2] (FGF18 0.5 μg/ml + 1 μg/ml heparin) was “suppressed the cGMP increase in response to CNP perfusion”.

Values taken from patent publication US20230233553A1, “A NEW COMBINATION THERAPY FOR THE TREATMENT OF FGFR3- RELATED SKELETAL DISEASE” (INSERM (INSTITUT NATIONAL DE LA SANTÉ ET DE LA RECHERCHE …, priority 2020, published 2023).
